Measurements taken from PubChem BioAssay AID248 (DTP/NCI, 2004).
Several values for one entry are separate records, joined by “and”; a condition that tells them apart may be missing. Equal entries are not always repeated. Toxic doses and inconclusive results are not listed. Cut-off read from the data, not from the text of the source: active = T/C of 150% or more; inactive = T/C below 125%.

System: L1210 leukemia ip in BDF1 mice, survival T/C
Assay: NCI In Vivo Anticancer Drug Screen. Data for tumor model L1210 Leukemia (intraperitoneal) in B6D2F1 (BDF1) mice
Conditions: endpoint: mean survival time, higher = longer survival
Summary of the method: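 Survival endpoint. Drug-treated group vs vehicle group, expressed as T divided by C. Tumor passaged by transplantation.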

[1] = dose: 100.0 mg/kg/injection, schedule: Q01DX001 (ip), vehicle: saline
[2] = dose: 200.0 mg/kg/injection, schedule: Q01DX001 (ip), vehicle: saline
[3] = dose: 400.0 mg/kg/injection, schedule: Q01DX001 (ip), vehicle: saline
[4] = dose: 50.0 mg/kg/injection, schedule: Q01DX001 (ip), vehicle: carboxymethylcellulose (CMC)
[5] = dose: 100.0 mg/kg/injection, schedule: Q01DX001 (ip), vehicle: carboxymethylcellulose (CMC)
[6] = dose: 200.0 mg/kg/injection, schedule: Q01DX001 (ip), vehicle: carboxymethylcellulose (CMC)
[7] = dose: 400.0 mg/kg/injection, schedule: Q01DX001 (ip), vehicle: carboxymethylcellulose (CMC)
[8] = dose: 100.0 mg/kg/injection, schedule: Q01DX009 (ip), vehicle: Klucel (hydroxypropylcellulose) (HPC)
[9] = dose: 200.0 mg/kg/injection, schedule: Q01DX009 (ip), vehicle: Klucel (hydroxypropylcellulose) (HPC)
[10] = dose: 400.0 mg/kg/injection, schedule: Q01DX009 (ip), vehicle: Klucel (hydroxypropylcellulose) (HPC)
[11] = dose: 100.0 mg/kg/injection, schedule: Q01DX009 (ip), vehicle: saline with Tween-80
[12] = dose: 200.0 mg/kg/injection, schedule: Q01DX009 (ip), vehicle: saline with Tween-80
[13] = dose: 100.0 mg/kg/injection, schedule: Q01DX001 (ip), vehicle: Klucel (hydroxypropylcellulose) (HPC)
[14] = dose: 12.5 mg/kg/injection, schedule: Q04DX003 (ip), vehicle: Klucel (hydroxypropylcellulose) (HPC)
[15] = dose: 75.0 mg/kg/injection, schedule: Q04DX003 (ip), vehicle: saline
[16] = dose: 150.0 mg/kg/injection, schedule: Q04DX003 (ip), vehicle: saline
[17] = dose: 100.0 mg/kg/injection, schedule: Q04DX003 (ip), vehicle: saline with Tween-80
[18] = dose: 200.0 mg/kg/injection, schedule: Q04DX003 (ip), vehicle: saline with Tween-80
[19] = dose: 25.0 mg/kg/injection, schedule: Q04DX003 (ip), vehicle: Klucel (hydroxypropylcellulose) (HPC)
[20] = dose: 50.0 mg/kg/injection, schedule: Q04DX003 (ip), vehicle: Klucel (hydroxypropylcellulose) (HPC)
[21] = dose: 100.0 mg/kg/injection, schedule: Q04DX003 (ip), vehicle: Klucel (hydroxypropylcellulose) (HPC)
[22] = dose: 200.0 mg/kg/injection, schedule: Q04DX003 (ip), vehicle: Klucel (hydroxypropylcellulose) (HPC)
[23] = dose: 400.0 mg/kg/injection, schedule: Q04DX003 (ip), vehicle: Klucel (hydroxypropylcellulose) (HPC)

Measured: T/C

CSc1n[nH]c(=O)[nH]c1=S
inactive: [1] 96 % of control | [2] 101 % of control | [3] 95 % of control

O=C(Nc1ccccc1)c1cc(N2CCOCC2)ccn1
inactive: [1] 97 % of control | [2] 95 % of control | [3] 91 % of control

NS(=O)(=O)c1ccc(NC(=S)NC(=O)/C=C/c2ccccc2)cc1
inactive: dose: 100.0 mg/kg/injection, schedule: Q01DX009 (sc), vehicle: olive oil, sesame oil, peanut oil 107 % of control | dose: 100.0 mg/kg/injection, schedule: Q04DX003 (sc), vehicle: olive oil, sesame oil, peanut oil 107 % of control | dose: 200.0 mg/kg/injection, schedule: Q01DX009 (sc), vehicle: olive oil, sesame oil, peanut oil 113 % of control | dose: 200.0 mg/kg/injection, schedule: Q04DX003 (sc), vehicle: olive oil, sesame oil, peanut oil 97 % of control | dose: 400.0 mg/kg/injection, schedule: Q01DX009 (sc), vehicle: olive oil, sesame oil, peanut oil 104 % of control | dose: 400.0 mg/kg/injection, schedule: Q04DX003 (sc), vehicle: olive oil, sesame oil, peanut oil 103 % of control

C=CCSc1ccc([N+](=O)[O-])cc1
inactive: [4] 101 % of control | [5] 95 % of control | [6] 104 % of control | [7] 98 % of control

O=C(COc1ccc(Cl)cc1)N(c1ccccc1)C1CCCCC1
inactive: [8] 96 % of control | [9] 96 % of control | [10] 94 % of control

CC12OC3(C)C4C(=O)OC1C1(C)OC4(C)C3C(=O)OC21
inactive: [11] 102 % of control | [12] 101 % of control | dose: 400.0 mg/kg/injection, schedule: Q01DX009 (ip), vehicle: saline with Tween-80 98 % of control

O=c1[nH]n(-c2ccccc2)c(=O)c2ccccc12
inactive: [13] 110 % of control and 102 % of control | dose: 200.0 mg/kg/injection, schedule: Q01DX001 (ip), vehicle: Klucel (hydroxypropylcellulose) (HPC) 100 % of control and 94 % of control | dose: 400.0 mg/kg/injection, schedule: Q01DX001 (ip), vehicle: Klucel (hydroxypropylcellulose) (HPC) 100 % of control and 104 % of control

Cc1cccc(C[P+](C/C=C/c2ccccc2)(c2ccccc2)c2ccccc2)c1
inactive: dose: 6.25 mg/kg/injection, schedule: Q04DX003 (ip), vehicle: Klucel (hydroxypropylcellulose) (HPC) 92 % of control | [14] 92 % of control

Nc1cccc(CCc2nc(N)nc(N)c2-c2ccc(Cl)c(Cl)c2)c1
inactive: dose: 100.0 mg/kg/injection, schedule: Q01DX001 (ip), vehicle: saline with Tween-80 95 % of control | dose: 200.0 mg/kg/injection, schedule: Q01DX001 (ip), vehicle: saline with Tween-80 109 % of control | dose: 400.0 mg/kg/injection, schedule: Q01DX001 (ip), vehicle: saline with Tween-80 109 % of control

Clc1ccc(/C=C2\c3ccccc3-c3nc4ccccc4nc32)cc1
inactive: [15] 91 % of control | [16] 88 % of control

CCCN(CCC)CCCCCCO
inactive: [17] 94 % of control | [18] 96 % of control

COC(=O)C(=O)c1c(O)n(-c2ccccc2)c2ccccc12
inactive: [19] 101 % of control | [20] 101 % of control | [21] 98 % of control

COc1ccccc1/C=C\C(=O)C1COCN1 (stereo not drawn)
inactive: [15] 105 % of control | [16] 100 % of control | dose: 300.0 mg/kg/injection, schedule: Q04DX003 (ip), vehicle: saline 102 % of control

O=C(Cl)c1cc2ccccc2o1
inactive: [17] 89 % of control | [18] 92 % of control | dose: 400.0 mg/kg/injection, schedule: Q04DX003 (ip), vehicle: saline with Tween-80 95 % of control

CCOC(=O)c1cc(OCC)nc(SC)n1
inactive: dose: 25.0 mg/kg/injection, schedule: Q01DX Z (ip), vehicle: methylcellulose (MC) 86 % of control | dose: 50.0 mg/kg/injection, schedule: Q01DX Z (ip), vehicle: methylcellulose (MC) 100 % of control

Cc1coc2c1[C@@H](O)[C@]1(C)[C@@H](C)CC[C@H](O)[C@]1(O)C2
inactive: [1] 97 % of control | [2] 95 % of control

Nc1ccc(S(=O)(=O)c2cc(O)c3ccccc3c2O)cc1
inactive: dose: 12.5 mg/kg/injection, schedule: Q01DX009 (ip), vehicle: saline 91 % of control | [14] 103 % of control | dose: 25.0 mg/kg/injection, schedule: Q01DX009 (ip), vehicle: saline 91 % of control | [19] 102 % of control | [20] 92 % of control

CCCCc1cccc(N2C(N)=NC(N)=NC2(C)C)c1
inactive: dose: 12.5 mg/kg/injection, schedule: Q01DX001 (ip), vehicle: saline 103 % of control | dose: 50.0 mg/kg/injection, schedule: Q01DX001 (ip), vehicle: saline 89 % of control

CCCCC(=O)N/N=C/c1ccc(Br)cc1
inactive: [1] 100 % of control | [2] 97 % of control | [3] 102 % of control

C=CCOc1ccc2c(C)cc(=O)oc2c1C
inactive: dose: 100.0 mg/kg/injection, schedule: Q01DX008 (ip), vehicle: Klucel (hydroxypropylcellulose) (HPC) 93 % of control | [8] 94 % of control | [21] 96 % of control | dose: 200.0 mg/kg/injection, schedule: Q01DX008 (ip), vehicle: Klucel (hydroxypropylcellulose) (HPC) 88 % of control | [9] 96 % of control | [22] 96 % of control | dose: 400.0 mg/kg/injection, schedule: Q01DX008 (ip), vehicle: Klucel (hydroxypropylcellulose) (HPC) 86 % of control | [10] 97 % of control | [23] 96 % of control

CCCCCCCCCCCCCCCCOc1ccccc1/C=C/C(=O)O
inactive: [21] 91 % of control | [22] 88 % of control | [23] 95 % of control

Cc1ccc(OC/C=C/CS(=O)(=O)c2ccc(Cl)cc2)cc1
inactive: dose: 50.0 mg/kg/injection, schedule: Q01DX009 (ip), vehicle: Klucel (hydroxypropylcellulose) (HPC) 98 % of control | dose: 75.0 mg/kg/injection, schedule: Q01DX001 (ip), vehicle: Klucel (hydroxypropylcellulose) (HPC) 96 % of control | [8] 95 % of control | dose: 150.0 mg/kg/injection, schedule: Q01DX001 (ip), vehicle: Klucel (hydroxypropylcellulose) (HPC) 96 % of control | [9] 98 % of control | dose: 300.0 mg/kg/injection, schedule: Q01DX001 (ip), vehicle: Klucel (hydroxypropylcellulose) (HPC) 94 % of control

O=C(C[P+](c1ccccc1)(c1ccccc1)c1ccccc1)c1ccccc1
inactive: dose: 75.0 mg/kg/injection, schedule: Q01DX001 (ip), vehicle: carboxymethylcellulose (CMC) 92 % of control | [13] 97 % of control | dose: 150.0 mg/kg/injection, schedule: Q01DX001 (ip), vehicle: carboxymethylcellulose (CMC) 97 % of control | dose: 300.0 mg/kg/injection, schedule: Q01DX001 (ip), vehicle: carboxymethylcellulose (CMC) 92 % of control

O=C(O)c1c(-c2ccccc2)[nH]c2cc(Cl)ccc2c1=O
inactive: [4] 113 % of control | [5] 113 % of control | [8] 112 % of control | [21] 104 % of control | [6] 107 % of control | [9] 106 % of control | [22] 107 % of control | [23] 104 % of control

CC1(C)C2CCC(OC(=O)c3ccc([N+](=O)[O-])cc3)C1C2 (stereo not drawn)
inactive: [4] 102 % of control | [5] 102 % of control | [6] 93 % of control | [7] 87 % of control

N=c1ccn(C(=O)C2=Cc3cc(Cl)ccc3OC2)cc1
inactive: [11] 92 % of control | [12] 102 % of control

CCCCCCCCCCCCCCCCCCn1cnc2c(=S)nc[nH]c21
inactive: dose: 12.5 mg/kg/injection, schedule: Q01DX005 (ip), vehicle: other 106 % of control | dose: 25.0 mg/kg/injection, schedule: Q01DX005 (ip), vehicle: other 98 % of control | dose: 50.0 mg/kg/injection, schedule: Q01DX005 (ip), vehicle: other 95 % of control | dose: 100.0 mg/kg/injection, schedule: Q01DX005 (ip), vehicle: other 104 % of control | dose: 200.0 mg/kg/injection, schedule: Q01DX005 (ip), vehicle: other 90 % of control
